In patent US20230414775A1, “TUBULYSINS AND PROTEIN-TUBULYSIN CONJUGATES” (priority 2021, published 2023) one finds IC50 data, which are given here for 12 compounds.

Where two headings read alike, the source gives them in different places.

In one experiment the test system is SK-BR-3 cells. As to the kind of experiment: SK-BR-3 anti-proliferation assay for payloads (CellTiter-Glo). It counts as cell-based. The conditions noted are these: Homo sapiens, free payload, 120-144 h, read-out: SKBR3. How it is done: The cell line used in the anti-proliferation assays was SK-BR-3, a human breast, adenocarcinoma (pleural effusion) cell line. The cells were grown in McCoy's 5a Medium+10% FBS. To run the assay for payloads, the cells (40 μL, 700 cells) were added to each well in a 384-well plate and incubated for 24 hours at 37° C. with 5% CO2. Then the cells were treated with test compounds at various concentrations using HPD300, and then normalize the DMSO to 0.5%. The control wells contain cells and the medium but lack the test compounds. The plates were incubated for 120 h at 37° C. with 5% CO2. To run the assay for ADCs and some key payloads, the cells (80 μL, 1000 cells) were added to each well in a 96-well plate and incubated for twenty-four hours at 37° C. with 5% CO2. Next, the ADCs or payloads were diluted with Opti-Mem with 0.1% BSA. The cells were treated with test compounds or ADCs (20 μL) at various concentrations in appropriate cell culture medium (total volume, 0.1 mL). The final concentration of DMSO was adjusted to 0.2% and the Opti-Mem with 0.1% BSA was adjusted to 5%. The control wells contained cells and the medium but lacked the test compounds. The plates were incubated for 144 h at 37° C. with 5% CO2. CTG reagent was then added to the wells (25 μL/384-well or 100 μL/96-well). After the plates were shaken for 10 min and then incubated for 10 min at room temperature, paste the clear bottom with white back seal and record luminescence with Envision. The inhibition % was calculated according to the following equation: inhibition %=[1-(assay-blank)/(control-blank)]×100.
A general note: ATP-based viability assays read luminescence as a measure of living cells.

For the next experiment, the system named is HCT15 cells. Nature of the experiment: HCT15 anti-proliferation / cell killing assay (CellTiter-Glo), with or without verapamil. Particulars: Homo sapiens. In kind it is cell-based, human. How it is done:
The cell line used in the anti-proliferation assays was HCT15, a human colon, colorectal carcinoma cell line. The HCT15 cells were grown in RPMI medium 1640+10% FBS. To run the assay, the cells (40 μL, 400 cells) were added to each well in a 384-well plate and incubated for twenty-four hours at 37° C. with 5% CO2. One hour before adding compounds, freshly dilute Verapamil to 0.2 mg/ml in ddH2O. Add 1 μL/well diluted Verapamil to Verapamil treatment wells and 1 μL/well ddH2O to the non-Verapamil treatment wells. Return plates to the incubator at 37° C. with 5% CO2. Then the cells were treated with test compounds at various concentrations using HPD300, and then normalize the DMSO to 0.5%. The control wells contained cells and the medium but lack the test compounds. The plates were incubated for 120 hours at 37° C. with 5% CO2. CTG reagent was then added to the wells (25 μL). After the plates were shaken for 10 min and then incubated for 10 min at room temperature, paste the clear bottom with white back seal and record luminescence with Envision. The inhibition % was calculated according to the following equation: inhibition %=[1−(assay-blank)/(control-blank)]×100.

Where [1] appears, read: HCT15 cells, no verapamil, 120 h (5 days), read-out: HCT-15.
Setting [2] is: HCT-15, HCT15 cells pre-treated with verapamil, 120 h, read-out: HCT-15 with verapamil.

`CCCCCCN(C(=O)[C@@H](NC(=O)[C@@]1(C)CCCN1CCN)[C@@H](C)CC)[C@H](C[C@@H](OC(C)=O)c1nc(C(=O)N[C@@H](Cc2ccc(O)cc2)CC(C)(C)C(=O)O)cs1)C(C)C` (mixture of isomers) [PA5, (S)-4-(2-((1RS,3RS)-1-acetoxy-3-((2SR,3SR)-2-((R)-1-(2-aminoethyl)-2-methylpyrrolidine-2-carboxamido)-N-hexyl-3-methylpentanamido)-4-methylpentyl)thiazole-4-carboxamido)-5-(4-hydroxyphenyl)-2,2-dimethylpentanoic acid]: the IC50 in the experiment on SK-BR-3 cells was 18.3 nM; in the experiment with HCT15 cells (setting [1]), over 100 nM; with HCT15 cells (setting [2]), 15.9 nM.
On the same counts, the results for `CCCCCCN(C(=O)[C@@H](NC(=O)[C@H]1CCCCN1)[C@@H](C)CC)[C@H](C[C@@H](OC(C)=O)c1nc(C(=O)N[C@@H](Cc2ccc(NCC(=O)O)cc2)CC(C)(C)C(=O)O)cs1)C(C)C` (mixture of isomers) [PA17, Rac-(R)-4-(2-((1S,3S)-1-acetoxy-3-((2R,3R)—N-hexyl-3-methyl-2-((S)-piperidine-2-carboxamido)pentanamido)-4-methylpentyl)thiazole-4-carboxamido)-5-(4-((carboxymethyl)amino)phenyl)-2,2-dimethylpentanoic acid] are 0.131 nM, 1.39 nM and 0.09 nM.
Take `CCCCCCN(C(=O)[C@@H](NC(=O)[C@H]1CCCCN1)[C@@H](C)CC)[C@H](C[C@@H](OCCCO)c1nc(C(=O)N[C@@H](Cc2ccc(NCC(=O)O)cc2)CC(C)(C)C(=O)O)cs1)C(C)C` (mixture of isomers) [PA23, Rac-(R)-5-(4-((carboxymethyl)amino)phenyl)-4-(2-((1S,3S)-3-((2R,3R)—N-hexyl-3-methyl-2-((S)-piperidine-2-carboxamido)pentanamido)-1-(3-hydroxypropoxy)-4-methylpentyl)thiazole-4-carboxamido)-2,2-dimethylpentanoic acid]: the IC50 was 9.35 nM in the experiment on SK-BR-3 cells, over 1000 nM in the experiment on HCT15 cells (setting [1]) and over 1000 nM in the experiment on HCT15 cells (setting [2]).
On to `CCCCCCN(C(=O)[C@@H](NC(=O)[C@H]1CCCCN1C)[C@@H](C)CC)[C@H](C[C@@H](OC(=O)NCCOCCOCCO)c1nc(C(=O)N[C@@H](Cc2ccc(N)c(F)c2)CC(C)(C)C(=O)O)cs1)C(C)C` (mixture of isomers) [PA25, (S)-5-(4-amino-3-fluorophenyl)-4-(2-((3RS,6SR,8SR)-3-((RS)-sec-butyl)-5-hexyl-19-hydroxy-6-isopropyl-1-((R)-1-methylpiperidin-2-yl)-1,4,10-trioxo-9,14,17-trioxa-2,5,11-triazanonadecan-8-yl)thiazole-4-carboxamido)-2,2-dimethylpentanoic acid], for which the IC50 came out at 1.6 nM in the experiment on SK-BR-3 cells, 0.477 nM in the experiment with HCT15 cells (setting [1]) and 0.158 nM in the experiment with HCT15 cells (setting [2]).
On the same counts, the results for `CCCCCCN(C(=O)[C@@H](NC(=O)[C@H]1CCCCN1C)[C@@H](C)CC)[C@H](C[C@@H](OC(C)=O)c1nc(C(=O)N[C@@H](Cc2ccc(NCC(N)=O)cc2)CC(C)(C)C(=O)O)cs1)C(C)C` (racemic) [PA18, Rac-(R)-4-(2-((1S,3S)-1-acetoxy-3-((2R,3R)—N-hexyl-3-methyl-2-((S)-1-methylpiperidine-2-carboxamido)pentanamido)-4-methylpentyl)thiazole-4-carboxamido)-acid] are 0.067 nM, 0.3 nM and 0.131 nM.
On the same counts, the results for `CCCCCCN(C(=O)[C@@H](NC(=O)[C@H]1CCCCN1C)[C@@H](C)CC)[C@H](C[C@@H](OC(C)=O)c1nc(C(=O)N[C@@H](Cc2ccc(N(CCO)C(=O)CN)cc2)CC(C)(C)C(=O)O)cs1)C(C)C` (racemic) [PA19, Rac-(R)-4-(2-((1S,3S)-1-acetoxy-3-((2R,3R)—N-hexyl-3-methyl-2-((S)-1-methylpiperidine-2-carboxamido)pentanamido)-4-methylpentyl)thiazole-4-carboxamido)-acid] are 1.84 nM, 10.8 nM and 1.8 nM.
As for `CCCCCCN(C(=O)[C@@H](NC(=O)[C@H]1CCCCN1C)[C@@H](C)CC)[C@H](C[C@@H](OC(C)=O)c1nc(C(=O)N[C@@H](Cc2ccc(N)cc2)CC(C)(C)C(=O)NCC(=O)O)cs1)C(C)C` (racemic) [PA29, Rac-((R)-4-(2-((1S,3S)-1-acetoxy-3-((2R,3R)—N-hexyl-3-methyl-2-((S)-1-methylpiperidine-2-carboxamido)pentanamido)-4-methylpentyl)thiazole-4-carboxamido)-5-(4-aminophenyl)-2,2-dimethylpentanoyl)glycine], the values for the IC50 with SK-BR-3 cells, with HCT15 cells (setting [1]) and with HCT15 cells (setting [2]) were 1.47 nM, 97.1 nM and 9.7 nM, respectively.
On the same counts, the results for `CCCCCCN(C(=O)[C@@H](NC(=O)[C@@]1(C)CCCN1)[C@@H](C)CC)[C@H](C[C@@H](OC(C)=O)c1nc(C(=O)N[C@@H](Cc2ccc(O)cc2)CC(C)(C)C(=O)O)cs1)C(C)C` [Compound P22, reference compound] are 0.087 nM, 0.265 nM and 0.078 nM.
On the same counts, the results for `CCCCCCN(C(=O)[C@@H](NC(=O)[C@H]1CCCCN1C)[C@@H](C)CC)[C@H](C[C@@H](OC(C)=O)c1nc(C(=O)N[C@@H](Cc2ccc(NC(=O)CN)cc2)CC(C)(C)C(=O)O)cs1)C(C)C` [Compound P28, reference compound] are 0.039 nM, 0.172 nM and 0.107 nM.
`CCCCCCN(C(=O)[C@@H](NC(=O)[C@@]1(C)CCCN1C(=O)CN)[C@@H](C)CC)[C@H](C[C@@H](OC(C)=O)c1nc(C(=O)N[C@@H](Cc2ccc(N)c(F)c2)CC(C)(C)C(=O)O)cs1)C(C)C` [PA1, (4S)-4-({2-[(1R,3R)-1-(acetyloxy)-3-[(2S,3S)-2-{[(2R)-1-(2-aminoacetyl)-2-methylpyrrolidin-2-yl]formamido}-N-hexyl-3-methylpentanamido]-4-methylpentyl]-1,3-thiazol-4-yl}formamido)-5-(4-amino-3-fluorophenyl)-2,2-dimethylpentanoic acid]: the IC50 in the experiment on HCT15 cells (setting [1]) and in the experiment with HCT15 cells (setting [2]) was over 100 nM each time.
For the compound `CCCCCCN(C(=O)[C@@H](NC(=O)[C@@]1(C)CCCN1C(=O)CN)[C@@H](C)CC)[C@H](C[C@@H](OC(C)=O)c1nc(C(=O)N[C@@H](Cc2ccc(O)cc2)CC(C)(C)C(=O)O)cs1)C(C)C` [PA2, (4S)-4-({2-[(1R,3R)-1-(acetyloxy)-3-[(2S,3S)-2-{[(2R)-1-(2-aminoacetyl)-2-methylpyrrolidin-2-yl]formamido}-N-hexyl-3-methylpentanamido]-4-methylpentyl]-1,3-thiazol-4-yl}formamido)-5-(4-hydroxyphenyl)-2,2-dimethylpentanoic acid], in the experiment with HCT15 cells (setting [1]), the IC50 is over 100 nM.
Regarding `C#CCCCON(C(=O)[C@@H](NC(=O)[C@@]1(C)CCCN1CCO)[C@@H](C)CC)[C@H](C[C@@H](OC(C)=O)c1nc(C(=O)N[C@@H](Cc2ccc(N)cc2)CC(C)(C)C(=O)O)cs1)C(C)C` [PA3, (4S)-4-({2-[(1R,3R)-1-(acetyloxy)-3-[(2S,3S)-2-{[(2R)-1-(2-hydroxyethyl)-2-methylpyrrolidin-2-yl]formamido}-3-methyl-N-(pent-4-yn-1-yloxy)pentanamido]-4-methylpentyl]-1,3-thiazol-4-yl}formamido)-5-(4-aminophenyl)-2,2-dimethylpentanoic acid], the IC50 with SK-BR-3 cells came out at 1.46 nM; in the experiment with HCT15 cells (setting [1]) it was 7.7 nM; in the experiment with HCT15 cells (setting [2]) it was 0.741 nM.
